Experimental data as given in patent publication US11061016B2, “In vitro model for pathological or physiologic conditions” (HemoShear, LLC, priority 2012, dated 2021).

Experiments:
[1] = test system: hepatocytes; test: Fatty liver model: measurement of total triglycerides; type: cell-based, rat; conditions: high insulin/glucose media; pioglitazone 1.5 μM; to levels similar to healthy conditions
Procedure: Triglyceride content was assessed using a commercially available colorimetric assay kit (Cayman Triglyceride Colorimetric Assay Kit, Cat #10010303). At the end of the treatment period, cells were collected from the porous membranes by scraping with a rubber policeman and PBS, after which they were centrifuged (2,000×g for 10 minutes at 4° C.). The cell pellets were resuspended in 100 μl of cold diluted Standard Diluent from the triglyceride assay kit and sonicated 20 times at one second bursts. The cell suspension was then centrifuged at 10,000×g for 10 minutes at 4° C. The supernatant was removed and used for the assay as per the manufacturer's protocol and normalized to protein content from the same samples.

[2] = test system: hepatocytes; test: Fatty liver model: RT-PCR metabolic gene expression; conditions: high insulin/glucose disease conditions; pioglitazone 1.5 μM

total triglyceride content of hepatocytes [1]: reduced
expression of metabolic genes such as Cyp3A2 [2]: restored
Compound: CCc1ccc(CCOc2ccc(CC3SC(=O)NC3=O)cc2)nc1 (centres unmarked) [Pioglitazone, pioglitazone]
